Reference: patent US20090124650A1 (priority 2007, published 2009)

Key:
[1] = In vivo ethanol study: oxymorphone 40 mg ER tablets with 240 mL of 40%, 20%, 4%, 0% ethanol; set-up: species or system human
Experimental: The study design was a randomized, open-label, single-dose, four-period crossover in 28 subjects. […] Subjects were fasted overnight for at least 8 hours prior to dosing. Water was allowed ad lib except from 1 hour before dosing until 1 hour after dosing. A standardized meal was served 4 hours and 10 hours after dosing.
A) 40% ethanol B) 20% ethanol C) 4% ethanol D) 0% ethanol
Serial blood samples were obtained from 0 to 48 hours after dosing. Plasma samples were assayed for oxymorphone. Pharmacokinetic parameters for oxymorphone were determined using non-compartmental methods. […] Any treatment in which a subject vomited during the dosing interval (0-12 hours) was excluded from the primary pharmacokinetic analysis.

[2] = Study 5: controlled release 40 mg vs immediate release 4x10 mg, fed and fasting; type: in vivo, human; details: food effect
Description: Subjects randomized to Treatment 5A and Treatment 5C, as described below, were in a fasted state following a 10-hour overnight fast. […] There was a 14-day washout interval between the four dose administrations. The subjects were confined to the clinic during each study period. Subject assigned to receive Treatment 5A and Treatment 5B were discharged from the clinic on Day 3 following the 48-hour procedures, and subjects assigned to receive Treatment 5C and Treatment 5D were discharged from the clinic on Day 2 following the 36-hour procedures. On Day 1 of each study period the subjects received one of four treatments:
Blood samples (7 ml) were collected during each study period at the 0 hour (predose), and at 0.25, 0.5, 0.75, 1.0, 1.5, 2, 3, 4, 5, 6, 8, 10, 12, 24, 36, 48, 60, and 72 hours post-dose (19 samples) for subjects randomized to all Treatments.

[3] = in vivo; cited from earlier work
[4] = Bioavailability in elderly, hepatically and renally impaired patients
[5] = elderly patients (65 years old or older)

Structure (SMILES): CN1CC[C@]23c4c5ccc(O)c4O[C@H]2C(=O)CC[C@@]3(O)[C@H]1C5 [oxymorphone, 14-hydroxydihydromorphinone]
- AUC change with ethanol ([1]; 240 mL of 20% or 4% ethanol concomitantly): essentially unchanged
- Cmax increase in individual subjects, up to ([1]; 240 mL of 40% ethanol): up to 270%
- AUC change with ethanol ([1]; 240 mL of 40% ethanol concomitantly): not statistically significantly changed
- Cmax increase (average) vs 0% ethanol ([1]; 240 mL of 40% ethanol, excluding subjects who vomited): 70%
- Cmax greater with a meal than without [2]: 50%
- oral bioavailability [3]: about 10%
- increase in Cmax [4, 5]: about 1.5 fold
- increase in bioavailability [4, 5]: about 1.4 fold
- bioavailability ([4]; hepatically impaired patients): increased
- bioavailability ([4]; renally impaired patients): increased
